We go through two compounds from patent publication US20190008870A1, “COMPOSITIONS AND METHODS FOR LIPID METABOLISM DISORDER” (JANSFAT BIOTECHNOLOGY CO., LTD., priority 2016, published 2019).

Test [1] addresses T1, Human recombinant HMG CoA reductase (Homo sapiens, UniProt P04035).
T1 construct: purchased Sigma-Aldrich H7039; host or cells: E. coli
Kind of test: HMG CoA reductase activity and [14C]mevalonate formation. The format is biochemical. Here is the method:
Human recombinant HMG CoA reductase expressed in E. coli (H7039, Sigma-Aldrich, MO, U.S.A.) was used. Human recombinant HMG-CoA reductase, examined by SDS-PAGE to be ≥90% in purity, 2-8 units/mg protein in activity and ˜76 kDa in molecular weight (H7039, Sigma-Aldrich, St. Louis, Mo. U.S.A.), was used for determining the formation of [^14C]mevalonate. KMUP-1 and targeted drugs were pre-incubated with 35 ng/ml enzyme in phosphate buffer pH 7.5 for 15 minutes at 37° C. The reaction was initiated by the addition of 2.5 μM [^14C]HMG-CoA for another 20 minutes incubation period and terminated by further addition of 1 N HCl. An aliquot was removed by column and counted to determine the amount of [^14C]mevalonate formed (Ricera® Co. Ltd., Taipei, Taiwan).

The subject of test [2] is ABCA1. Kind of test: HFD-induced ABCA1 expression in liver. The format is in vivo, mice.
For test [3], the system named is PPARγ. The experiment in a line: PPARγ expression in HepG2 cells. It is filed as cell-based. The conditions noted are these: for PPARγ expression: 10^−5 M, 24 hours, Control 100, Vehicle 260. Here is the method: (§1) The HepG2 hepatoma cell line was purchased from the American Type Culture Collection (ATCC, Manassas, Va., U.S.A.). Cells were cultured in Dulbecco's Modified Eagle's Medium (DMEM). […] Then the targeted drugs solution was incubated with the cells for 24 hours, followed by protein extraction. […] HepG2 cells were treated with various concentrations of targeted drugs for 24 hours. Reactions were terminated by washing twice with cold PBS, and the cells were then harvested. Proteins in the whole-cell lysate were homogenized in an ice-cold lysis buffer and a protease inhibitor (Sigma-Aldrich, St. Louis, Mo., U.S.A.). The homogenate was centrifuged at 90,000×g for 15 minutes at 4° C., and supernatant was recovered as the total cellular protein. Cytosolic and membrane fractions of HepG2 cells were prepared using a CNM (Cytosol Nuclear Membrane) compartmental protein extraction kit (BioChain Institute Inc., Hayward, Calif., U.S.A.) according to the manufacturer's instructions. All of the fractionated protein solutions were stored at −80° C. until analysis. To measure the expression levels of proteins by drugs, the total cell protein was extracted after incubation with treatments for 24 hours and then Western blotting analysis was performed as described previously.

The test system of test [4] is HMG CoA reductase. The experiment in a line: HMG CoA reductase expression in HepG2 cells (Western blotting). It is filed as cell-based. The following applies: for HMGR (%): 24 hours, CTL 100; for HMG CoA expression: Mevalonate (100 μM) + drug (10^−5 M), Control 100. Here is the method:
The HepG2 hepatoma cell line was purchased from the American Type Culture Collection (ATCC, Manassas, Va., U.S.A.). Cells were cultured in Dulbecco's Modified Eagle's Medium (DMEM). The culture media was supplemented with 5% heat-inactivated FBS, penicillin (100 U/mL) and streptomycin (100 μg/mL). Cells were grown in a humidified atmosphere containing 5% CO2 at 37° C., in which the oxygen tension in the incubator was held at 140 mmHg (20% O2, v/v; normoxic conditions). […] Then the targeted drugs solution was incubated with the cells for 24 hours, followed by protein extraction. The targeted drugs were added to the […].
HepG2 cells were treated with various concentrations of targeted drugs for 24 hours. Reactions were terminated by washing twice with cold PBS, and the cells were then harvested. Proteins in the whole-cell lysate were homogenized in an ice-cold lysis buffer and a protease inhibitor (Sigma-Aldrich, St. Louis, Mo., U.S.A.). The homogenate was centrifuged at 90,000×g for 15 minutes at 4° C., and supernatant was recovered as the total cellular protein. Cytosolic and membrane fractions of HepG2 cells were prepared using a CNM (Cytosol Nuclear Membrane) compartmental protein extraction kit (BioChain Institute Inc., Hayward, Calif., U.S.A.) according to the manufacturer's instructions. All of the fractionated protein solutions were stored at −80° C. until analysis. To measure the expression levels of proteins by drugs, the total cell protein was extracted after incubation with treatments for 24 hours and then Western blotting analysis was performed as described previously.
In general terms: Immunoblotting shows a protein as a band on a membrane.

The test system of test [5] is HMG CoA reductase. The experiment in a line: HFD-induced HMG CoA reductase expression in liver. The format is in vivo, mice. Here is the method:
(§2) In the experiment, C57BL/6J male mice (21-22 g), after fasting, were fed an HFD as a model of hyperlipidemia for 8 weeks. During the 2 month experiments, mice fasted for one night before the experiment was changed from a standard diet (STD) to an HFD and then the mice were randomly divided into 13 groups, including a protection group, 2 control and 10 treatment groups. Six mice were used in each group. […] Liver from the protection group supplemented with KMUP-1 HCl (1 mg/kg/day) were used to determine the HMG CoA reductase expression. Each group of mice had free access to drinking water from week 1 to week 14. Tap water was used to normalize mineral nutrition.
(§3) For the expression of SR-B1, HMGR, PPARγ and ROCK II, isolated liver tissues were cut into small chips and placed into an extraction buffer (Tris 10 mM, pH 7.0, NaCl 140 mM, PMSF 2 mM, DTT 5 mM, NP-40 0.5%, pepstatin A 0.05 mM and leupeptin 0.2 mM) for hepatic protein extraction, and centrifuged at 20,000×g for 30 minutes. The obtained protein extract was boiled to a ratio of 4:1 with a sample buffer (Tris 100 mM, pH 6.8, glycerol 20%, SDS 4% and bromophenol blue 0.2%). Electrophoresis was performed using 10% SDS-polyacrylamide gel (1 hour, 100 V, 40 mA, 20 μg protein per lane).
(§4) Separated proteins, after 3 repeated centrifugations to discard up-layer tissue lipid in purity, were transferred to PVDF membranes treated with 5% fat-free milk powder to block the nonspecific IgGs (90 minutes, 100 V) and incubated for 1 hour with specific protein antibody. The blot was then incubated with anti-mouse or anti-goat IgG linked to alkaline phosphatase (1:1000) for 1 hour.

The subject of test [6] is PPARγ. The experiment in a line: HFD-induced PPARγ expression in liver. The format is in vivo, mice. Here is the method:
as §2, §3, §4

Test [7] has as its system ABCA1. Kind of test: ABCA1 expression in HepG2 cells. The format is cell-based. The conditions noted are these: for ABCA1 expression: 10^−5 M, 24 hours, Control 100, Vehicle 110. Here is the method: as §1
The mark [8] stands for this setting: HepG2 cells, GGPP (10 μM) + drug 10^−5 M.
Setting [9] is: HepG2 cells, GGPP (10 μM) + drug 10^−6 M.
[10] abbreviates: HepG2 cells, GGPP (10 μM) + drug 10^−7 M.
The mark [11] stands for this setting: HepG2 cells, GGPP (10 μM) + drug 10^−8 M.
Where [12] appears, read: HepG2 cells, GGPP (10 μM) + drug 10^−9 M.
[13] abbreviates: Simva 5 mg/kg, CTL 100 (Table 9).

T1 sequence (P04035 426-888 limits assumed): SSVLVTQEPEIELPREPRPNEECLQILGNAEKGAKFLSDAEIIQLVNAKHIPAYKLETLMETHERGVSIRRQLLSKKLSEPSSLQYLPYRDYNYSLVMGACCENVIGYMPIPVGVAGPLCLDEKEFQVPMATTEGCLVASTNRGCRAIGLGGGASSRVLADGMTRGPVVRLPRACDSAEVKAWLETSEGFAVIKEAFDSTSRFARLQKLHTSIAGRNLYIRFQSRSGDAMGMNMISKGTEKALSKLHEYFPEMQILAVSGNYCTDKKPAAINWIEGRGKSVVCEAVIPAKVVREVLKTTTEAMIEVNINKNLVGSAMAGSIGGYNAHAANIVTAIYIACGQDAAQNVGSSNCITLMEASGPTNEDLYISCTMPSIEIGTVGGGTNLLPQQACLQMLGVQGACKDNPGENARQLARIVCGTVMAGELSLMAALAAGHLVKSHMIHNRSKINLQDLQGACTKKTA

For the compound `Cn1c(=O)c2c(ncn2CCN2CCN(c3ccccc3Cl)CC2)n(C)c1=O` [KMUP-1, 7-[2-[4-(2-chlorophenyl)piperazinyl]ethyl]-1,3-dimethylxanthine], the “[14C]mevalonate formation” value in test [1] (10 μM) is given as “could not reduce”. For the same compound, the ABCA1 in test [2] (HFD mice, 1 mg/kg, CTL 100) worked out at 98%; in test [2] (HFD mice, 2.5 mg/kg, CTL 100), 190%; in test [2] (HFD mice, 5 mg/kg, CTL 100) it was 200%. Moreover, the “expression of PPARγ” value in test [3] (HepG2, 10^−9-10^−5 M) was “increased”. In test [3] (HepG2 cells), the “increase of PPARγ” value was 2-3 folds. Moreover, the PPARγ expression in test [3] (HepG2 cells) is 595. Also, the PPARγ in test [3] (HepG2 cells, FPP (10 μM) + drug 10^−5 M) was found to be 138%; in test [3] (HepG2 cells, FPP (10 μM) + drug 10^−6 M) it was 140%; in test [3] (HepG2 cells, FPP (10 μM) + drug 10^−7 M) it was 142%; in test [3] (HepG2 cells, FPP (10 μM) + drug 10^−8 M), 84%; in test [3] (HepG2 cells, FPP (10 μM) + drug 10^−9 M), 72%; in test [3] (setting [8]) it was 120%. The PPARγ in test [3] (setting [9]) is recorded as 106%; in test [3] (setting [10]), 108%; in test [3] (setting [11]) it was 90%; in test [3] (setting [12]) it was 78%; in test [6] (HFD mice, 1 mg/kg, CTL 100), 53%; in test [6] (HFD mice, 2.5 mg/kg, CTL 100), 249%. The PPARγ in test [6] (HFD mice, 5 mg/kg, CTL 100) is 245%. The “HMGR (%)” value in test [4] (10^−5 M) is listed as 270%; in test [4] (10^−6 M) it was 220%; in test [4] (10^−7 M) it was 210%; in test [4] (10^−8 M), 125%; in test [4] (10^−9 M), 120%. Moreover, the “HMG CoA expression” value in test [4] was 62%. Also, the HMGR in test [5] (HFD mice, 1 mg/kg, CTL 100) is recorded as 43%; in test [5] (HFD mice, 2.5 mg/kg, CTL 100) it was 150%; in test [5] (HFD mice, 5 mg/kg, CTL 100) it was 140%. The “expression of ABCA1” value in test [7] (HepG2, 10^−9-10^−5 M) is on record as “increased”. For the same compound, the ABCA1 expression in test [7] (HepG2 cells) is listed as 200. The “expression of ABCA1 suppressed by FPP or GGPP” value in test [7] (HepG2 cells, FPP or GGPP (10 μM) + 10^−9-10^−5 M) is “reversed”.
For the compound `CCC(C)(C)C(=O)O[C@H]1C[C@@H](C)C=C2C=C[C@H](C)[C@H](CC[C@@H]3C[C@@H](O)CC(=O)O3)[C@H]21` [Simva, Simvastatin, reference compound], the “inhibition of [14C]mevalonate formation” value in test [1] (compared to the vehicle group) is on record as 86.6±4.2%. In test [2] (setting [13]), this compound registered an ABCA1 of 100%. For the same compound, the PPARγ expression in test [3] (HepG2 cells) was 350. The PPARγ is on record as 46% in test [3] (setting [8]); 46% in test [3] (setting [9]); 44% in test [3] (setting [10]); 40% in test [3] (setting [11]); 46% in test [3] (setting [12]); 280% in test [6] (setting [13]). For the same compound, the entries for the “HMGR (%)” value in test [4] (10^−5 M), in test [4] (10^−8 M) and in test [4] (10^−9 M) were 280%, 152% and 150%, respectively. Besides, the “HMG CoA expression” value in test [4] turned out to be 50%. This compound gave an HMGR in test [5] (setting [13]) of 100%. In test [7] (HepG2 cells), this compound had an ABCA1 expression of 146.
